The text below walks through data of patent US9951065B2 (Gilead Sciences, Inc., priority 2015, dated 2018).

What is called pEC50 is the negative decadic logarithm of the EC50, by convention in mol/L. High values mean a small EC50, low ones a large EC50.

pEC50: −log10 of the molar value.

In the test the target is T1, IDO1 (Homo sapiens, UniProt P14902).
T1 construct: HeLa cells were treated with a test compound in the presence of IFNγ, which induces IDO1 expression; host or cells: H1-HeLa cells, IDO1 induced with IFNγ
T1 sequence (P14902 whole entry): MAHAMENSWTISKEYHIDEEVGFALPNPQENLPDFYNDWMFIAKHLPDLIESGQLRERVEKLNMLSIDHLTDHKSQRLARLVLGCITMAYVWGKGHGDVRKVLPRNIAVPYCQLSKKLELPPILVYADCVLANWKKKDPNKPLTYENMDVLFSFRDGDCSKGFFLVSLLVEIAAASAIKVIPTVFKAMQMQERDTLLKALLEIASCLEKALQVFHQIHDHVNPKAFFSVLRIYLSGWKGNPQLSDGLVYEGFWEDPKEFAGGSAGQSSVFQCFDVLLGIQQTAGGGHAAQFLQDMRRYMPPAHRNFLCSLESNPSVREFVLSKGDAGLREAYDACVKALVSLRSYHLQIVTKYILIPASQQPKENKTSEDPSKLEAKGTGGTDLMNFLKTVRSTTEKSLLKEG
The test is described as follows: Cell-based (HeLa) assay for measurement of IDO1 inhibition (kynurenine levels in supernatant after IFNγ induction). Conditions: HeLa cells, IFNγ-induced IDO1, kynurenine in supernatant, 48 hour incubation; geometric mean of a minimum of four determinations. The essentials:
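HeLa cells, 1,250 per well, treated with compound (0.5% DMSO final) plus IFNγ to induce IDO1, for 48 h. Supernatant kynurenine measured by TCA hydrolysis at 60 °C, then p-dimethylaminobenzaldehyde, absorbance 480 nm. EC50 from a four-parameter fit normalized to −/+IFNγ controls; geometric mean of at least four runs.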
Compound `CN(C)CCCNc1nc2c(F)c(F)cc(/C(=N/O)Nc3cccc(Br)c3)c2[nH]1` [Example 386, N-(3-bromophenyl)-2-((3-(dimethylamino)propyl)amino)-4,5-difluoro-N′-hydroxy-1H-benzo[d]imidazole-7-carboximidamide] gave a pEC50 of 6.25.

In turn, `CN(C)CCCNc1nc2c(F)c(F)cc(/C(=N/O)Nc3ccc(F)c(Br)c3)c2[nH]1` [Example 387, N-(3-bromo-4-fluorophenyl)-2-((3-(dimethylamino)propyl)amino)-4,5-difluoro-N′-hydroxy-1H-benzo[d]imidazole-7-carboximidamide] showed a pEC50 of 6.16.

Compound `CN(C)CCCNc1nc2c(F)ccc(/C(=N/O)Nc3ccc(F)c(Cl)c3)c2[nH]1` [Example 388, N-(3-chloro-4-fluorophenyl)-2-((3-(dimethylamino)propyl)amino)-4-fluoro-N′-hydroxy-1H-benzo[d]imidazole-7-carboximidamide] gave a pEC50 of 6.03.

The compound `CN(C)CCCNc1nc2cc(F)cc(/C(=N/O)Nc3ccc(F)c(Cl)c3)c2[nH]1` [Example 389, N-(3-chloro-4-fluorophenyl)-2-((3-(dimethylamino)propyl)amino)-5-fluoro-N′-hydroxy-1H-benzo[d]imidazole-7-carboximidamide] had a pEC50 of 5.94.

The compound `CN(CCNc1nc2c(F)c(F)cc(/C(=N/O)Nc3ccc(F)c(Cl)c3)c2[nH]1)Cc1ccccc1` [Example 390, 2-((2-(benzyl(methyl)amino)ethyl)amino)-N-(3-chloro-4-fluorophenyl)-4,5-difluoro-N′-hydroxy-W-benzo[d]imidazole-7-carboximidamide] showed a pEC50 of 5.99.

For `CN(CCc1nc2nccc(/C(=N/O)Nc3ccc(F)c(Cl)c3)c2[nH]1)CC1CCCCC1` [Example 391, N-(3-chloro-4-fluorophenyl)-2-(2-((cyclohexylmethyl)(methyl)amino)ethyl)-N′-hydroxy-1H-imidazo[4,5-b]pyridine-7-carboximidamide], the pEC50 was 5.83.

For the compound `CN(CCc1nc2nccc(/C(=N/O)Nc3ccc(F)c(Cl)c3)c2[nH]1)CC(C)(C)C` [Example 392, N-(3-chloro-4-fluorophenyl)-N′-hydroxy-2-(2-(methyl(neopentyl)amino)ethyl)-1H-imidazo[4,5-b]pyridine-7-carboximidamide], the pEC50 is 5.91.

For `CN(CCc1nc2nccc(/C(=N/O)Nc3ccc(F)c(Cl)c3)c2[nH]1)C1CCCCC1` [Example 393, N-(3-chloro-4-fluorophenyl)-2-(2-(cyclohexyl(methyl)amino)ethyl)-N′-hydroxy-1H-imidazo[4,5-b]pyridine-7-carboximidamide], the pEC50 was 5.75.

`CN(CCNc1nc2c(F)c(F)cc(/C(=N/O)Nc3ccc(F)c(Cl)c3)c2[nH]1)CC1CCOCC1` [Example 394, N-(3-chloro-4-fluorophenyl)-4,5-difluoro-N′-hydroxy-2-((2-(methyl((tetrahydro-2H-pyran-4-yl)methyl)amino)ethyl)amino)-1H-benzo[d]imidazole-7-carboximidamide] gave a pEC50 of 6.48.

`CNCCNc1nc2c(F)c(F)cc(/C(=N/O)Nc3ccc(F)c(Cl)c3)c2[nH]1` [Example 395, N-(3-chloro-4-fluorophenyl)-4,5-difluoro-N′-hydroxy-2-((2-(methylamino)ethyl)amino)-1H-benzo[d]imidazole-7-carboximidamide]: the pEC50 was 6.12.

`CN(CCc1nc2nccc(/C(=N/O)Nc3ccc(F)c(Cl)c3)c2[nH]1)Cc1ccccc1` [Example 396, 2-(2-(benzyl(methyl)amino)ethyl)-N-(3-chloro-4-fluorophenyl)-N′-hydroxy-1H-imidazo[4,5-b]pyridine-7-carboximidamide] had a pEC50 of 6.10.

In the case of `CCC(CC)CN(C)CCNc1nc2c(F)c(F)cc(/C(=N/O)Nc3ccc(F)c(Cl)c3)c2[nH]1` [Example 397, N-(3-chloro-4-fluorophenyl)-2-((2-((2-ethylbutyl)(methyl)amino)ethyl)amino)-4,5-difluoro-N′-hydroxy-1H-benzo[d]imidazole-7-carboximidamide], the pEC50 is 5.88.

`CN(CCNc1nc2c(F)c(F)cc(/C(=N/O)Nc3ccc(F)c(Cl)c3)c2[nH]1)CC1CC1` [Example 398, N-(3-chloro-4-fluorophenyl)-2-((2-((cyclopropylmethyl)(methyl)amino)ethyl)amino)-4,5-difluoro-N′-hydroxy-1H-benzo[d]imidazole-7-carboximidamide] showed a pEC50 of 6.26.

`CN(CCc1nc2nccc(/C(=N/O)Nc3ccc(F)c(Cl)c3)c2[nH]1)CC1CCOCC1` [Example 399, N-(3-chloro-4-fluorophenyl)-N′-hydroxy-2-(2-(methyl((tetrahydro-2H-pyran-4-yl)methyl)amino)ethyl)-1H-imidazo[4,5-b]pyridine-7-carboximidamide] gave a pEC50 of 5.88.

For the compound `CN(CCc1nc2nccc(/C(=N/O)Nc3ccc(F)c(Cl)c3)c2[nH]1)CC1COCCO1` (stereo not drawn) [Example 400, 2-(2-(((1,4-dioxan-2-yl)methyl)(methyl)amino)ethyl)-N-(3-chloro-4-fluorophenyl)-N′-hydroxy-1H-imidazo[4,5-b]pyridine-7-carboximidamide], the pEC50 is 5.55.

On to `CN(CCc1nc2nccc(/C(=N/O)Nc3ccc(F)c(Cl)c3)c2[nH]1)CCC1CCOCC1` [Example 401, N-(3-chloro-4-fluorophenyl)-N′-hydroxy-2-(2-(methyl(2-(tetrahydro-2H-pyran-4-yl)ethyl)amino)ethyl)-1H-imidazo[4,5-b]pyridine-7-carboximidamide], for which the pEC50 was 6.24.

Compound `O/N=C(\Nc1ccc(F)c(Cl)c1)c1ccnc2nc(NCCNC3CC3)[nH]c12` [Example 402, N-(3-chloro-4-fluorophenyl)-2-((2-(cyclopropylamino)ethyl)amino)-N′-hydroxy-1H-imidazo[4,5-b]pyridine-7-carboximidamide] had a pEC50 of 6.25.

Compound `CCN(CCNc1nc2nccc(/C(=N/O)Nc3ccc(F)c(Cl)c3)c2[nH]1)C1CC1` [Example 403, N-(3-chloro-4-fluorophenyl)-2-((2-(cyclopropyl(ethyl)amino)ethyl)amino)-N′-hydroxy-1H-imidazo[4,5-b]pyridine-7-carboximidamide] gave a pEC50 of 6.72.

As to `CC(=O)NCCNc1nc2nccc(/C(=N/O)Nc3ccc(F)c(Cl)c3)c2[nH]1` [Example 404, N-(2-((7-(N-(3-chloro-4-fluorophenyl)-N′-hydroxycarbamimidoyl)-1H-imidazo[4,5-b]pyridin-2-yl)amino)ethyl)acetamide], the pEC50 is below 5.00.

`CS(=O)(=O)NCCNc1nc2nccc(/C(=N/O)Nc3ccc(F)c(Cl)c3)c2[nH]1` [Example 405, N-(3-chloro-4-fluorophenyl)-N′-hydroxy-2-((2-(methylsulfonamido)ethyl)amino)-1H-imidazo[4,5-b]pyridine-7-carboximidamide] had a pEC50 of 5.15.

Take `CC(C)N(CCNc1nc2nccc(/C(=N/O)Nc3ccc(F)c(Cl)c3)c2[nH]1)C1CC1` [Example 406, N-(3-chloro-4-fluorophenyl)-2-((2-(cyclopropyl(isopropyl)amino)ethyl)amino)-N′-hydroxy-1H-imidazo[4,5-b]pyridine-7-carboximidamide]: the pEC50 is 6.73.
